Laboratory results as given in ChEMBL document CHEMBL5291721, “A preclinical secondary pharmacology resource illuminates target-adverse drug reaction associations of marketed drugs” (Nat Commun, 2023).

Experiments:
[1] = target: T1, Muscarinic acetylcholine receptor M2 (Homo sapiens, UniProt P08172)
T1 sequence (P08172 whole entry): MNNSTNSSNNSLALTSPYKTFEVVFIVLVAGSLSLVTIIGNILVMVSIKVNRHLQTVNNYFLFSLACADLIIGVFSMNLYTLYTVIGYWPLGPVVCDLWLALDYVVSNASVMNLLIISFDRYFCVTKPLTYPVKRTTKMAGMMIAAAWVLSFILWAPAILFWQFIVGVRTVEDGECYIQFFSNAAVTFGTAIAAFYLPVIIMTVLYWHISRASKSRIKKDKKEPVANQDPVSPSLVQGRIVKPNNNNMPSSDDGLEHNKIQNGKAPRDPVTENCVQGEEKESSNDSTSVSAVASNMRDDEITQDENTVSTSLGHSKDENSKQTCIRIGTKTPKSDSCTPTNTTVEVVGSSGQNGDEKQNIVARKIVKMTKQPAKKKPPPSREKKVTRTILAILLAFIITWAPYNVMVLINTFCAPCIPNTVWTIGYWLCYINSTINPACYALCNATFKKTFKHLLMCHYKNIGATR

[2] = target: T2, 5-hydroxytryptamine receptor 1A (Homo sapiens, UniProt P08908)
T2 sequence (P08908 whole entry): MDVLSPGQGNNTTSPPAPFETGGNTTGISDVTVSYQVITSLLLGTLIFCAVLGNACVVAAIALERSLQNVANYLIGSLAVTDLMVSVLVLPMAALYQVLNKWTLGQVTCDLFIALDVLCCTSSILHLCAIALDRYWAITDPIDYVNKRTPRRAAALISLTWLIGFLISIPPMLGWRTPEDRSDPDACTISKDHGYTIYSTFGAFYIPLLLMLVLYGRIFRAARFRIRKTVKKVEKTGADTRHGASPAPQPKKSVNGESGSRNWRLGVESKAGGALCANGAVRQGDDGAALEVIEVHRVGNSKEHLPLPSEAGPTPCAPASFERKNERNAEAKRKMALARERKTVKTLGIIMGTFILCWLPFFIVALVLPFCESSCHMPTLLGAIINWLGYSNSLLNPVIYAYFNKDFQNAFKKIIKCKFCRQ

[3] = target: Voltage-gated inwardly rectifying potassium channel KCNH2 (Homo sapiens, UniProt Q12809); type: functional; conditions: read-out: AC50
[4] = target: T3, Amine oxidase [flavin-containing] A (Homo sapiens, UniProt P21397); type: functional
T3 sequence (P21397 whole entry): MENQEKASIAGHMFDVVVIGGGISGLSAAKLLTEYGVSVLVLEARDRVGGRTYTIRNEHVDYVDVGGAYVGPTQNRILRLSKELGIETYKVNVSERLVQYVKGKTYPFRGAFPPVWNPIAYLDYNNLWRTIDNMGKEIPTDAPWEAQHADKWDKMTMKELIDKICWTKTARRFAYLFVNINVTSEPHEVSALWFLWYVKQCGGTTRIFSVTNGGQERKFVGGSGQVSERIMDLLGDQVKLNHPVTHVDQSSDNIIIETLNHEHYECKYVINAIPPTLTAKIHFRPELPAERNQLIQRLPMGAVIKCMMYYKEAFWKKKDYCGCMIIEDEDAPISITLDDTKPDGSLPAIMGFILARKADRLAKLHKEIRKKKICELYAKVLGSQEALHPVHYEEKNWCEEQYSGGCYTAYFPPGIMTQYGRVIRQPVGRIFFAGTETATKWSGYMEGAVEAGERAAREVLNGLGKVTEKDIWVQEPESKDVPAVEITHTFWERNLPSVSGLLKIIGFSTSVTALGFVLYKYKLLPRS

Progesterone receptor = target: T4, Progesterone receptor (Homo sapiens, UniProt P06401)
T4 sequence (P06401 whole entry): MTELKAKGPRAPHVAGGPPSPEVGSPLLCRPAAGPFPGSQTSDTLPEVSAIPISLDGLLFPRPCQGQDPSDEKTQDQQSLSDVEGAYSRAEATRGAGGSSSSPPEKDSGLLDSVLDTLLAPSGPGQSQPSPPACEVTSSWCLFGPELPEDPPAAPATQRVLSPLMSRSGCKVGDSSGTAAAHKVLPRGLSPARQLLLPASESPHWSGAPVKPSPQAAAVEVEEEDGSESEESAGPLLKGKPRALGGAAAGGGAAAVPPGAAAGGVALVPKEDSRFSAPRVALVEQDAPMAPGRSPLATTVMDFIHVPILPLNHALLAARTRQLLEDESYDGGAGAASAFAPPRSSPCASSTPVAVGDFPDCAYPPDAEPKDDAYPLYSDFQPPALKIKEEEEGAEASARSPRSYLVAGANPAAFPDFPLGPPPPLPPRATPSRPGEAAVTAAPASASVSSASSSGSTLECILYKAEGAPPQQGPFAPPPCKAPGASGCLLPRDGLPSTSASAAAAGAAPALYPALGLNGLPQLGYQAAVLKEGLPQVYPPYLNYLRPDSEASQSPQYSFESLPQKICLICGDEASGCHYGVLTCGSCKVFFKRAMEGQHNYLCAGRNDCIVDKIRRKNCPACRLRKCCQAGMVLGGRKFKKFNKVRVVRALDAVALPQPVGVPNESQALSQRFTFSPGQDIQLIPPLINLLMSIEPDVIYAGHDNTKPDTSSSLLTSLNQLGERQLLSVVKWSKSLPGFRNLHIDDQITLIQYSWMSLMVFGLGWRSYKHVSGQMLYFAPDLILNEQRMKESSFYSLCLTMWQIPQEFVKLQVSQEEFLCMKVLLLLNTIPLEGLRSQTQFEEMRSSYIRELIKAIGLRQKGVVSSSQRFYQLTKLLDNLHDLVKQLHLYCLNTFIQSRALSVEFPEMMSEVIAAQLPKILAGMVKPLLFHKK
Note: assay procedure not described here.

Sequence of Voltage-gated inwardly rectifying potassium channel KCNH2 (Q12809 whole entry): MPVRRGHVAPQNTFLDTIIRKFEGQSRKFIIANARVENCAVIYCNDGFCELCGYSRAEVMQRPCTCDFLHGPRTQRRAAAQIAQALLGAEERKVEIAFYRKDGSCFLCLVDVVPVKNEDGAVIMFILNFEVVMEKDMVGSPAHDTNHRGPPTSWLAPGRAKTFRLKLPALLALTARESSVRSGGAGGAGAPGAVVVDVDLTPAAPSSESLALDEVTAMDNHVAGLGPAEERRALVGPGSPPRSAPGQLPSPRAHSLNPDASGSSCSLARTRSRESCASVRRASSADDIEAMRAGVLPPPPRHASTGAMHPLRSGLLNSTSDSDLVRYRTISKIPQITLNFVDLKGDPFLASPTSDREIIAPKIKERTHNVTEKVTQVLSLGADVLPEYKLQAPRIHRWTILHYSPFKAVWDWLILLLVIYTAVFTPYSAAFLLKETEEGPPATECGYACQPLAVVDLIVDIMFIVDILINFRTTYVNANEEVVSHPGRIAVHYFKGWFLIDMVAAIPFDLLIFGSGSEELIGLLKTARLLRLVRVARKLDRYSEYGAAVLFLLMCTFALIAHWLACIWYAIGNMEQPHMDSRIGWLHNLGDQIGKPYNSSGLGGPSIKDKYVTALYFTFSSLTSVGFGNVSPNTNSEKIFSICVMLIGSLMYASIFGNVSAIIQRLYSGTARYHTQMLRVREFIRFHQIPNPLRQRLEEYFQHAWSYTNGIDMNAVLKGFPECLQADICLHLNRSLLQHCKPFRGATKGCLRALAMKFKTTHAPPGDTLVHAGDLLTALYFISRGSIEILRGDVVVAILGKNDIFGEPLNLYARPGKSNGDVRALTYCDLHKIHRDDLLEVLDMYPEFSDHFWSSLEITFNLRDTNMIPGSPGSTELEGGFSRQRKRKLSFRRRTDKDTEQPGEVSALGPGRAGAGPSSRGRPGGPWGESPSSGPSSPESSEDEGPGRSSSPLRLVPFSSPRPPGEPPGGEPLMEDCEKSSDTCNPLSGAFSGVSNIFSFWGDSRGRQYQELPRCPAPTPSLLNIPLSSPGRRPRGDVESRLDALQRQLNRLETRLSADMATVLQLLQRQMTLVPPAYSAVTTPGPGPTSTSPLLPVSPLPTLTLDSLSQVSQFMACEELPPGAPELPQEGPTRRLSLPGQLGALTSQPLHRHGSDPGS

SMILES: N[C@@H](Cc1ccc(N(CCCl)CCCl)cc1)C(=O)O
- AC50 [1]: 13.6 µM
- AC50 [2]: > 30 µM
- AC50 [3]: 4.8 µM
- AC50 [4]: > 30 µM
- AC50 (Progesterone receptor): > 30 µM

SMILES: CC1=C(/C=C/C(C)=C\C=C\C(C)=C\C(=O)O)C(C)(C)CCC1 [ALITRETINOIN]
- AC50 [1]: > 30 µM
- AC50 [2]: > 30 µM
- AC50 [4]: > 30 µM
- AC50 (Progesterone receptor): > 30 µM

SMILES: CC(=O)Nc1ccc(/C=N/NC(N)=S)cc1 [AMITHIOZONE]
- AC50 [1]: > 30 µM
- AC50 [2]: > 30 µM
- AC50 [4]: > 10 µM
- AC50 (Progesterone receptor): > 30 µM

SMILES: COc1ccc(-c2cc(=S)ss2)cc1 [ANETHOLTRITHION]
- AC50 [3]: 23.3 µM

SMILES: C[C@H]1C[C@H]2[C@@H]3CCC4=CC(=O)C=C[C@]4(C)[C@@]3(F)[C@@H](O)C[C@]2(C)[C@@]1(O)C(=O)CO [BETAMETHASONE]
- AC50 [1]: > 30 µM
- AC50 [2]: > 30 µM
- AC50 [3]: > 30 µM
- AC50 [4]: > 30 µM
- AC50 (Progesterone receptor): 11.4 µM

SMILES: O=c1[nH]c(=O)n([C@H]2C[C@H](O)[C@@H](CO)O2)cc1/C=C/Br [BRIVUDINE]
- AC50 [1]: > 30 µM
- AC50 [2]: > 30 µM
- AC50 [3]: > 30 µM
- AC50 [4]: > 30 µM
- AC50 (Progesterone receptor): > 30 µM

SMILES: C[C@]12CCC(=O)C=C1C=C[C@@H]1[C@@H]2CC[C@@]2(C)[C@H]1CC[C@@]21CCC(=O)O1 [CANRENONE]
- AC50 [3]: > 30 µM

SMILES: O=NN(CCCl)C(=O)NCCCl [CARMUSTINE]
- AC50 [1]: > 30 µM
- AC50 [2]: > 30 µM
- AC50 [4]: > 30 µM

SMILES: CN(C)CCC(O)(c1ccccc1)c1ccccc1Cl (centres undefined) [CHLOPHEDIANOL]
- AC50 [3]: 3.4 µM

SMILES: Nc1ccn(C[C@@H](CO)OCP(=O)(O)O)c(=O)n1 [CIDOFOVIR]
- AC50 [1]: > 30 µM
- AC50 [2]: > 30 µM
- AC50 [3]: > 30 µM
- AC50 [4]: > 30 µM
- AC50 (Progesterone receptor): > 30 µM

SMILES: CC1(C)C[C@@H]1C(=O)N/C(=C\CCCCSC[C@H](N)C(=O)O)C(=O)O [CILASTATIN]
- AC50 [1]: > 30 µM
- AC50 [2]: > 30 µM
- AC50 [3]: > 30 µM
- AC50 [4]: > 30 µM
- AC50 (Progesterone receptor): > 30 µM

SMILES: C[C@]12C=CC(=O)C=C1C(Cl)=C[C@@H]1[C@@H]2[C@@H](O)C[C@@]2(C)[C@H]1CC[C@]2(O)C(=O)CO [CLOPREDNOL]
- AC50 [3]: > 30 µM

SMILES: CC(=O)OCC(=O)[C@@]1(OC(C)=O)[C@@H](C)C[C@H]2[C@@H]3C[C@H](F)C4=CC(=O)C=C[C@]4(C)[C@@]3(F)[C@@H](O)C[C@@]21C [DIFLORASONE DIACETATE]
- AC50 [1]: > 30 µM
- AC50 [2]: > 30 µM
- AC50 [3]: > 30 µM
- AC50 [4]: > 30 µM
- AC50 (Progesterone receptor): 0.0193 µM

SMILES: C[C@]12CCC(=O)C=C1[C@@H]1C[C@@H]1[C@H]1[C@@H]3[C@@H]4C[C@@H]4[C@@]4(CCC(=O)O4)[C@@]3(C)CC[C@@H]12 [DROSPIRENONE]
- AC50 [3]: > 30 µM

SMILES: CC(C)(Oc1ccc(Cl)cc1)C(=O)OCCOC(=O)c1cccnc1 [ETOFIBRATE]
- AC50 [3]: > 30 µM

SMILES: CC1=C(/C=C/C(C)=C/C=C/C(C)=C\C(=O)O)C(C)(C)CCC1 [ISOTRETINOIN]
- AC50 [1]: > 30 µM
- AC50 [2]: > 30 µM
- AC50 [4]: > 30 µM
- AC50 (Progesterone receptor): > 30 µM

SMILES: CCn1c(=O)c2c(nc(/C=C/c3ccc(OC)c(OC)c3)n2C)n(CC)c1=O [ISTRADEFYLLINE]
- AC50 [1]: > 30 µM
- AC50 [2]: 10.5 µM
- AC50 [3]: > 30 µM
- AC50 [4]: > 30 µM
- AC50 (Progesterone receptor): > 30 µM

SMILES: CC(C)NC[C@H](O)COc1ccc(CCOCC2CC2)cc1 [LEVOBETAXOLOL]
- AC50 [1]: > 30 µM
- AC50 [2]: > 30 µM
- AC50 [3]: > 30 µM
- AC50 [4]: > 30 µM
- AC50 (Progesterone receptor): > 30 µM

SMILES: Cc1cccc(C)c1NC(=O)CN(CC(=O)O)CC(=O)O [LIDOFENIN]
- AC50 [1]: > 30 µM
- AC50 [2]: > 30 µM
- AC50 [3]: > 30 µM
- AC50 [4]: > 30 µM
- AC50 (Progesterone receptor): > 30 µM

SMILES: C#C[C@]1(OC(C)=O)CC[C@H]2[C@@H]3CCC4=CC(=O)CC[C@@H]4[C@H]3CC[C@@]21C [NORETHINDRONE ACETATE]
- AC50 [1]: 9.44 µM
- AC50 [2]: > 30 µM
- AC50 [3]: > 30 µM
- AC50 [4]: > 30 µM
- AC50 (Progesterone receptor): 0.033 µM

SMILES: CCC(=O)c1ccc2c(c1)N(CC(C)N(C)C)c1ccccc1S2 (centres undefined) [PROPIOMAZINE]
- AC50 [3]: 0.685 µM

SMILES: Cc1ncc(CO)c(CO)c1O [PYRIDOXINE]
- AC50 [1]: > 30 µM
- AC50 [2]: > 30 µM
- AC50 [3]: > 30 µM
- AC50 [4]: > 30 µM
- AC50 (Progesterone receptor): > 30 µM

SMILES: CN(C)[C@@H]1C(O)=C(C(=O)NCN2CCCC2)C(=O)[C@@]2(O)C(O)=C3C(=O)c4c(O)cccc4[C@@](C)(O)[C@H]3C[C@@H]12 [ROLITETRACYCLINE]
- AC50 [3]: > 30 µM

SMILES: CC1(C)CCC(C)(C)c2cc(NC(=O)c3ccc(C(=O)O)cc3)ccc21 [TAMIBAROTENE]
- AC50 [1]: > 30 µM
- AC50 [2]: > 30 µM
- AC50 [4]: > 30 µM
- AC50 (Progesterone receptor): 29.2 µM

SMILES: Cc1ccc(O)c([C@H](CCN(C(C)C)C(C)C)c2ccccc2)c1 [TOLTERODINE]
- AC50 [2]: > 30 µM
- AC50 [4]: > 30 µM

SMILES: CC1(C)O[C@@H]2C[C@H]3[C@@H]4CCC5=CC(=O)C=C[C@]5(C)[C@@]4(F)[C@@H](O)C[C@]3(C)[C@]2(C(=O)CO)O1 [TRIAMCINOLONE ACETONIDE]
- AC50 [3]: > 30 µM

SMILES: CCOC1O[C@H]([C@@H](COCc2ccccc2)OCc2ccccc2)[C@H](OCc2ccccc2)[C@H]1O (some centres undefined) [TRIBENOSIDE]
- AC50 [1]: > 30 µM
- AC50 [2]: > 30 µM
- AC50 [3]: > 30 µM
- AC50 [4]: > 30 µM
- AC50 (Progesterone receptor): > 30 µM

SMILES: NS(=O)(=O)c1cc2c(cc1Cl)NC(C(Cl)Cl)NS2(=O)=O (centres undefined) [TRICHLORMETHIAZIDE]
- AC50 [1]: > 30 µM
- AC50 [2]: > 30 µM
- AC50 [4]: > 30 µM
- AC50 (Progesterone receptor): > 30 µM

SMILES: Oc1cc(Cl)ccc1Oc1ccc(Cl)cc1Cl [TRICLOSAN]
- AC50 [3]: > 30 µM

SMILES: N[C@@H](Cc1ccc(O)cc1)C(=O)O [TYROSINE]
- AC50 [1]: > 30 µM
- AC50 [2]: > 30 µM
- AC50 [4]: > 30 µM
- AC50 (Progesterone receptor): > 30 µM
